Test in all cases: wild-type E. coli growth inhibition versus h34 humanized strain – h34 mutant RFP, wild-type GFP, cherry-pick, dose response (AID 977624);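 note: wild-type GFP strain co-cultured with humanized h34 ribosome RFP strain in same well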
Assay [1] relates to E. coli h34 humanized ribosome mutant RFP strain growth, fluorescence, 24 h.
Assay [2] has as its system E. coli wild-type GFP strain growth, fluorescence, 24 h.
For assay [3], the system named is E. coli mixed culture (wild-type GFP + h34 RFP) total growth, OD600, 24 h. Conditions: E. coli mixed culture (wild-type GFP + h34 RFP), 24 h.
Where [4] appears, read: measured here: total OD600 growth.

AC50 data for 45 molecules are collected here from PubChem BioAssay AID977624 (Broad Institute, 2014).

By AC50 is commonly meant the concentration giving half of the maximal activity seen.

Structures are written as SMILES. Results filed as inconclusive are left out. Active and inactive are the calls of the source.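 Rule for the calls: active = compound lowering the normal-ribosome reporter at least twice as much as the humanized-ribosome reporter, growth loss under a set limit; inconclusive = no clear call, values can overlap the other calls; inactive = the rest.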 Bounds are passed on as bounds.

Molecule `O=C(c1ccc(N2CCCCC2)c([N+](=O)[O-])c1)N1CCN(c2ccccn2)CC1` had an AC50 in assay [1] greater than 100 µM.
Still for that read-out and setting: in the case of `O=C(Nc1ccccc1N1CCOCC1)C1CCCCN1S(=O)(=O)c1ccccc1` (stereo not given) it was greater than 100 µM.
In the case of `Cc1ccc(NS(=O)(=O)c2cc(C(=O)N3CCc4ccccc4C3)ccc2Cl)cc1`, the values for the AC50 in assay [2] and in assay [1] were > 100 µM (inactive) and 32.6 µM, respectively.
Consider `O=C(Nc1ccncc1)c1ccc(S(=O)(=O)Nc2ccccc2)cc1`, for which the AC50 in assay [1] was 46.5 µM.
Take `CCOc1ccccc1N(CC(=O)Nc1ccccc1F)S(=O)(=O)c1ccccc1`: the AC50 is > 100 µM (inactive) in assay [2] and 52.1 µM in assay [1].
Turning to `CC(NCc1ccc(S(N)(=O)=O)cc1)C(=O)Nc1cc([N+](=O)[O-])ccc1Cl` (stereo not given), the results for the AC50 in assay [2] and in assay [1] were > 100 µM (inactive) and greater than 100 µM, respectively.
Regarding `CC(=O)c1c(N2CCOCC2)nc2ccc(Cl)cc2c1-c1ccccc1`, the AC50 in assay [1] is greater than 100 µM.
With `O=C(Nc1ccccc1N1CCN(C(=O)c2ccccc2)CC1)c1ccc([N+](=O)[O-])o1`, the AC50 in assay [2] was > 100 µM (inactive); in assay [1], 1.97 µM.
As to `COCC#Cc1ccc2c(c1)O[C@H](CN(C)C(=O)c1ccccc1)[C@@H](C)CN([C@H](C)CO)S2(=O)=O`, the AC50 in assay [1] was greater than 100 µM.
`Cc1cccc(N2CCN(Cc3nc(-c4ccc(F)cc4F)oc3C)CC2)n1`: the AC50 in assay [1] was 3.83 µM.
Turning to `CS(=O)(=O)Nc1ccccc1C(=O)NCCSc1ccccc1`, the AC50 in assay [1] amounted to 51.2 µM.
Turning to `O=C(Nc1ccccc1Cl)c1ccc2c(c1)N(Cc1ccc(F)cc1)C(=O)CS2=O` (stereo not given), the AC50 in assay [2] is > 100 µM (inactive); in assay [1] it was 50 µM.
Take `Cc1nnc2sc(SCC(=O)Nc3ccc(Br)cc3)nn2c1=O`: the AC50 in assay [2] was > 100 µM (inactive); in assay [1] it was greater than 100 µM.
The molecule `COC(=O)c1cc(S(=O)(=O)NCc2ccc3c(c2)OCO3)cn1C` returned an AC50 in assay [1] of 52.4 µM.
Consider `COc1cccc(NC(=O)CSc2nc3c(sc4ccccc43)c(=O)n2CCN(C)C)c1`, for which, in assay [1], the AC50 was greater than 100 µM.
`CCC1=Nc2cc(C(=O)NCc3cccnc3)ccc2Sc2ccc(C)cc21`: the AC50 is > 100 µM (inactive) in assay [2] and 32.6 µM in assay [1].
`CCCC(=O)Nc1sc2c(c1C(=O)Nc1ccccn1)CCCC2` came in with an AC50 in assay [1] greater than 100 µM.
In turn, `CC(C)n1nnnc1C1c2ccccc2C(=O)N1CCOc1ccccc1` (stereo not given) had an AC50 in assay [1] of 5.87 µM.
In the case of `O=S(=O)(NCC1CCCO1)c1ccc(-c2ccc(Cl)cc2)cc1` (stereo not given), the AC50 in assay [1] worked out at 31.8 µM.
As for `O=C1c2cccc(OCC(=O)N3CCCc4ccccc43)c2CCN1Cc1cccnc1`, the AC50 in assay [3] (setting [4]) was greater than 100 µM; in assay [2] it was > 100 µM (inactive).
Turning to `O=C(Nc1cccc(Cl)c1)c1ccc(S(=O)(=O)NCC2CCCO2)cc1` (stereo not given), the AC50 in assay [2] was > 100 µM (inactive); in assay [1], 1.4 µM.
With `Cc1ccccc1NS(=O)(=O)c1cc(C(=O)NCCC2=CCCCC2)ccc1C`, the AC50 in assay [1] was greater than 100 µM.
With `O=C(c1cnc(Cc2c[nH]c3ccccc23)c(I)c1)N1CCCCC1`, the AC50 in assay [3] (setting [4]) was greater than 100 µM; in assay [2], > 100 µM (inactive).
`CCc1cc2c(=O)n(Cc3ccccc3)c(SC3CCOC3=O)nc2s1` (stereo not given): the results for the AC50 in assay [2] and in assay [1] were > 100 µM (inactive) and 46.4 µM, respectively.
With `COc1cc(C(N)=O)cc(Br)c1OCc1ccccc1`, the figures for the AC50 in assay [3] (setting [4]) and in assay [2] were greater than 100 µM and > 100 µM (inactive), respectively.
With `CN1CCN(C(=O)C[C@@H]2CC[C@@H]3[C@H](COC[C@H](O)CN3C(=O)Nc3ccc(Cl)cc3)O2)CC1`, the concentration at half-maximal activity (AC50) in assay [3] (setting [4]) is greater than 100 µM; in assay [2] it was > 100 µM (inactive).
As for `CCOc1ccc(OCCn2c(=S)[nH]c3c(N)ncnc32)cc1`, the AC50 in assay [2] was > 100 µM (inactive); in assay [1], 17.3 µM.
In assay [1], `Cc1noc(C)c1S(=O)(=O)N(Cc1ccccc1)C(C)C` showed an AC50 greater than 100 µM.
In the case of `O=C(O)c1cccnc1SCc1ccccc1Cl`, the AC50 is greater than 100 µM in assay [3] (setting [4]) and > 100 µM (inactive) in assay [2].
As to `COc1cc(OC)nc(Oc2ccccc2C(=O)Oc2ccc(C)cc2)n1`, the AC50 in assay [2] is > 100 µM (inactive); in assay [1], 45.6 µM.
The molecule `C=CCN(c1ccccc1)S(=O)(=O)c1cccc2cccnc12` came in with an AC50 in assay [1] of 4.71 µM.
As to `O=C(Nc1cccc(Oc2ccc3c(c2)C(=O)NC3=O)c1)c1cccs1`, the AC50 in assay [3] (setting [4]) is greater than 100 µM; in assay [2], > 100 µM (inactive).
`COc1cc(NC(=O)C(c2ccccc2)c2ccccc2)c(C(=O)O)cc1OC`: the AC50 in assay [2] is > 100 µM (inactive); in assay [1] it was 36.4 µM.
Regarding `CCn1c(NC(=O)c2nn(C)cc2Br)nc2ccccc21`, the figures for the AC50 in assay [3] (setting [4]), in assay [2] and in assay [1] were 50.3 µM, > 100 µM (inactive) and 45.6 µM, respectively.
Consider `COc1ccc(NC(=O)Nc2cccc3c2O[C@H](CN(C)S(=O)(=O)c2ccc(Cl)cc2)[C@H](C)CN([C@@H](C)CO)C3=O)cc1`, for which the AC50 in assay [3] (setting [4]) is greater than 100 µM; in assay [2] it was > 52 µM (inactive).
Take `c1ccc(-n2c(SCc3nc(-c4cccs4)no3)nnc2-c2ccco2)cc1`: the AC50 is greater than 100 µM in assay [3] (setting [4]) and > 100 µM (inactive) in assay [2].
On to `O=C(O)c1cc(-c2ccc(Cl)s2)nc2ccccc12`, for which the AC50 was greater than 100 µM in assay [3] (setting [4]) and > 100 µM (inactive) in assay [2].
In turn, `COc1ccc(NC(=O)c2cccs2)cc1C(=O)N1CCN(c2ccccc2)CC1` displayed an AC50 in assay [1] greater than 100 µM.
Turning to `C[C@@H]1CCCCO[C@@H](CN(C)C(=O)c2ccccc2)[C@H](C)CN([C@@H](C)CO)C(=O)c2cc(NC(=O)c3ccccc3)ccc2O1`, the AC50 in assay [3] (setting [4]) is greater than 100 µM; in assay [2] it was > 100 µM (inactive).
In the case of `CCOc1ccccc1NC(=O)c1ccc2ccccc2c1`, the AC50 in assay [3] (measured here: OD600, test 1) is 38.3 µM; in assay [2] (measured here: GFP wild-type, test 1) it was greater than 100 µM; in assay [1] (E. coli wild-type GFP strain growth, fluorescence, 24 h, measured here: RFP h34 mutant, test 1), greater than 100 µM.
On to `COc1ccc(OC2C(=O)N(Cc3ccc4c(c3)OCO4)C2c2cccs2)cc1` (stereo not given), for which the AC50 was greater than 100 µM in assay [3] (setting [4]) and > 100 µM (inactive) in assay [2].
As to `CC(C)Cn1c(=O)c2ccccc2c2ccccc2c1=O`, the AC50 in assay [2] is > 100 µM (inactive); in assay [1] it was 7.44 µM.
On to `N#Cc1cccc(-c2ccc3c(c2)[C@H]2[C@H](CCN2C(=O)c2ccccc2F)[C@H](CO)N3)c1`, for which the AC50 in assay [3] (setting [4]) is greater than 100 µM; in assay [2], > 100 µM (inactive).
As for `Cc1ccc(C2(c3noc(CN(C)Cc4cccnc4)n3)CCCC2)cc1`, the values for the AC50 in assay [3] (setting [4]) and in assay [2] were greater than 100 µM and > 100 µM (inactive), respectively.
As for `CC(C)(C)c1ccc(-c2noc(CCC(=O)NCc3ccco3)n2)cc1`, the AC50 in assay [1] turned out to be 2.76 µM.
